Consider 87 molecules from a melting point compilation (Tetko et al.; mined from patent text by program, amines drawn as free bases though some values may be those of a salt).

In general, melting point refers to the temperature, or range, at which the solid turns liquid.

Residues, ends and D or L forms follow the SMILES beside them. *: point of attachment. Boc = CC(C)(C)OC(=O)*

Turning to `CCOC(=O)C(O)=CC(=O)c1c[nH]c2ccccc12`, the melting point was > 300 °C. The molecule `NS(=O)(=O)c1ccc(-n2nc(CF)cc2-c2ccccc2)cc1` yielded a melting point of 162 to 163 °C. Regarding `CC(C)(C)OC(=O)N1CCCC1C(=O)NC(Cc1ccccc1)C(=O)NCC(=O)O` (stereo not drawn) (Boc-Pro-Phe-Gly-OH; configuration not given here), the melting point is 98 to 100 °C.

For the molecule `COc1cc(-c2ccc(-c3ccc(N=Nc4ccccn4)c(OC)c3)o2)ccc1N=Nc1ccccn1`, the melting point lay within 212 to 213 °C.

`O=Cc1ccc2c(c1)Sc1cc(C=O)ccc1N2c1ccccc1`: the melting point was in the range of 194 to 198 °C. The molecule `CN1Cc2ccccc2N(C)S1(=O)=O` yielded a melting point of 59 to 60 °C.

As for `COC(=O)C1=C(C)Nc2ncnn2C1c1cccs1` (configuration not stated), the melting point lay in the range of 239 to 240 °C. `COc1ccc(CCCC(=O)O)cc1NC(=O)C[C@H]1O[C@H](c2cccc(OC)c2OC)c2cc(Cl)ccc2N(CC(C)(C)CO)C1=O` gave a melting point of 119 to 121 °C.

`COC(=O)C1Cc2c([nH]c3ccccc23)C(c2ccc(Cl)c(Cl)c2)N1C(=O)CCl` (configuration not stated) gave a melting point of 163 to 165 °C. For `CCc1nc2c(cnn2CC)c(NC2CCOCC2)c1CNC(=O)c1cc(C)cc(C(=O)NCc2ccc(OC)c(Br)c2)c1`, the melting point is 123 to 126 °C. `CCOC(=O)NC(=S)N1CC1C#N` (configuration not stated) yielded a melting point of 152 to 155 °C. `Cc1nc2[nH]c(=O)[nH]c2cc1-c1ccc(N)cc1` yielded a melting point of 277 to 283 °C.

Take `CCOC(=O)N1CCc2nc3c(C(F)(F)F)cccc3c(C)c2CC1`: the melting point turned out to be 136 °C. For `CC(C)NC(C)C(=O)Nc1cccc2c1C(=O)c1c(NC(=O)C(C)NC(C)C)cccc1C2=O` (configuration not stated), the melting point fell in the range of 105 to 106 °C. For `Cc1ccc2c(c1)C=Cc1cc(C)ccc1C2c1cn(Cc2ccc(C(=O)Nc3nc(CC(=O)Nc4nc(CC(=O)O)cs4)cs3)o2)c(=O)[nH]c1=S`, the melting point came out at 253 °C. Consider `O=C1CCCCC(c2ccccc2)N1` (configuration not stated), for which the melting point lay in the range of 135 to 137 °C. In turn, `O=C1CCC(CCO)N1` (configuration not stated) returned a melting point of 52 to 52.5 °C.

Molecule `CCOC(=O)C(C#N)=Cc1c(OC)nc2c(C)cccn12` had a melting point of 127 to 129 °C. On to `Cc1cccc2nc(O)n(C3CCC(=O)NC3=O)c(=O)c12` (configuration not stated), for which the melting point was 373 to 375 °C. With `CCOC(=O)c1cnoc1-c1ccc(F)c(Br)c1` the figure was 111 to 112 °C; with `COC(=O)[C@]12OC(=O)C[C@H]1S[C@@H]1[C@H](NC(=O)COc3ccccc3)C(=O)N12`, 182 to 184 °C; with `O=C(O)c1cc(=O)c2cc(F)ccc2o1`, 261 to 262 °C. As to `CN1C(=O)CCC2(C)C3CCC4(C)C(OC(=O)NCc5ccccc5)CCC4C3CCC12` (configuration not stated), the melting point is 216 to 217 °C. The molecule `CCCCCCCCCCCCCCCCCCNC(=O)OCC(CN(C(C)=O)S(=O)(=O)CCCCl)NC(C)=O` (configuration not stated) showed a melting point of 116 to 117 °C. In the case of `NC(=C[N+](=O)[O-])NC1=CC2CCC1C2` (configuration not stated), the melting point lay in the range of 128 to 132 °C. The molecule `CCOC(=O)/C=C/c1cn(Cc2ccc(OCc3ccccc3)cc2)cc1-c1ccccc1` yielded a melting point of 111 to 112 °C.

As to `O=c1[nH]c2sc3cc(Br)c(F)cc3c2[nH]c1=O`, the melting point was > 300 °C. `CCCCOC(CCN)(c1ccccc1)c1ccccc1` had a melting point of 50 to 54 °C.

Consider `CCOC(=O)C1COc2cc(C(C)=O)ccc2O1` (configuration not stated), for which the melting point stood at 60 °C. Molecule `CC(Oc1ccc([N+](=O)[O-])cc1)c1nnc(N=C=O)s1` (configuration not stated) gave a melting point of 215 to 221 °C. Regarding `COc1ccc(S(=O)(=O)N(Cc2cccnc2)c2c(C(=O)O)cnc3c2c(C)nn3C)cc1`, the melting point fell in the range of 256 to 258 °C. Molecule `O=c1[nH]c2ccc(C=CCN3CCC(Cc4ccc(F)cc4)CC3)cc2o1` had a melting point of 202 to 204 °C. In the case of `O=C1c2ccc(F)cc2C(=O)N1c1ccc(Cl)cc1F`, the melting point was 122 to 123 °C.

Molecule `COc1cc(C)cc(OC)c1C(=O)CCl` gave a melting point of 82 to 84 °C.

As to `O=C(O)c1sc(-c2cccc(Cl)c2)nc1O`, the melting point lay within 107 to 108 °C. Molecule `NS(=O)(=O)c1ccc(-c2cn(-c3nc(-c4ccc(F)c(F)c4)cc(C(F)(F)F)n3)cn2)s1` registered a melting point of 228 °C. `CNc1nc(-c2cccc(N)c2)cs1` returned a melting point of 118 to 121 °C. Molecule `CCCCCCCSc1nn2c(=O)c(C)c(O)nc2s1` returned a melting point of 141 to 143 °C. As for `CCOC(=O)c1nn(-c2ccc(N=[N+]=[N-])cc2)c(=O)c2c(N)scc12`, the melting point was in the range of 169 to 170 °C. With `CCN(CC)CCCNc1nc2ccccc2n(-c2ccc(Cl)cc2)c1=O` the figure was 123 to 124 °C; with `O=C(O)Cc1ccc(CCNS(=O)(=O)c2ccc(F)cc2)cc1`, 192 to 193 °C. Take `Fc1cc(Br)cc(CBr)c1`: the melting point fell in the range of 41 to 43 °C. With `NC(=O)CCCCc1c[nH]c2ccccc12` the figure was 134 to 139 °C.

With `Cc1cc(-c2nc(-c3c(F)cccc3Cl)nn2C)ccc1-c1ccc(OC(F)(F)F)cc1`, the melting point fell in the range of 117 to 122 °C.

Turning to `CCCCCCOC(=O)c1cccc(-c2cn(C)cc(-n3cccn3)c2=O)c1`, the melting point lay in the range of 96 to 97 °C. With `O=c1[nH]c2cc(Cl)ccc2c(=O)c2c(-c3ccccc3)n[nH]c12` the figure was 328 to 331 °C. `COc1cc(C(O)c2cccs2)cc([N+](=O)[O-])c1OC` (configuration not stated) showed a melting point of 79 to 81 °C. The molecule `COC(=O)c1cc(S(C)(=O)=O)ccc1OC1CCOC1=O` (configuration not stated) displayed a melting point of 102 to 105 °C. As for `Nc1ccc(-c2ncc(NC(=O)OCc3ccccc3)c(=O)n2CC(=O)NC(Cc2ccccc2)C(=O)C(F)(F)F)cc1` (configuration not stated), the melting point was in the range of 98 to 101 °C.

Molecule `CCCCCCCCCCCCCCCC(=O)Nc1ccc(C(=O)O)cc1C` yielded a melting point of 194 to 196 °C. Then `CCC(O)(CC)c1cc(C)c(-c2cc(OCc3ccc(CO)c(CO)c3)ccc2C)c(C)c1`, with 128 °C. For the molecule `C#CC12CC3CC(C#C)(C1)CC(C#C)(C3)C2`, the melting point was in the range of 84 to 86 °C. In turn, `Cc1cc(C)c(/C=C2\C(=O)N(CO)c3ccccc32)[nH]1` gave a melting point of 196 to 200 °C. Consider `COc1cc(C2C3=C(COC3=O)Nc3ccc4ncsc4c32)cc(OC)c1OC` (configuration not stated), for which the melting point fell in the range of 309 to 310 °C. With `CC(C)(C)OC(=O)N1C[C@H]2[C@@H](C1)C(c1ccccc1)(c1ccccc1)CC[C@@H]2O`, the melting point was found to be 190 °C. `NC(=O)c1cc(NCc2cccc(Cl)c2)c([N+](=O)[O-])cc1[N+](=O)[O-]` returned a melting point of 178 to 180 °C. In the case of `O=C(O)CCC1CCN(CC(=O)OC2CCCCC2)CC1`, the melting point fell in the range of 85 to 88 °C.

Take `ClCCCOc1cccc2cccnc12`: the melting point fell in the range of 69 to 71 °C. With `Oc1cccc(-c2ccc3nnn(Cc4ccc5ncccc5c4)c3n2)c1`, the melting point lay in the range of 255 to 257 °C. The molecule `O=C(N[C@H]1CCN(CCc2ccc(F)cc2)C1)C(c1cccs1)c1cccs1` gave a melting point of 96 to 98 °C. Take `COC(=O)C1=C(C)NC(C)=C(C(=O)OCCCOc2ccc(CCCCO)cc2)C1c1cccc([N+](=O)[O-])c1` (configuration not stated): the melting point came out at 72 °C.

On to `CN(C#N)C(=O)CCCC(=O)N(C)C#N`, for which the melting point fell in the range of 51.4 to 52.8 °C. Consider `CC(C)(C)[Si](C)(C)Oc1cccc(C(O)C(c2ccccc2)C2SCCCS2)c1` (configuration not stated), for which the melting point fell in the range of 75 to 76 °C. Consider `COc1ccc(S(=O)(=O)N2Cc3ccccc3N(C(=O)COc3ccccc3)CC2C(=O)O)cc1` (configuration not stated), for which the melting point was 188 to 191 °C. Take `O=S(=O)(CC(F)(F)F)Nc1cccc2c1CCCC2c1c[nH]cn1` (single isomer, unassigned; (+)): the melting point is > 260 °C.

`COc1ccc(C(=O)Nc2cc(-c3c(-c4ccc(F)c(C)c4)nc4cccnn34)ccn2)cc1` returned a melting point of 222 to 223 °C. Then `CCCC1=C([N+](=O)[O-])C(c2ccccc2Br)c2c[nH]nc2N1` (configuration not stated), with 226 °C; and `CC(C)(C)OC(=O)NC1Cc2ccccc2C(F)C1O` (configuration not stated), with 98 to 99 °C. As to `COc1cc(NC(C)=O)c(Cl)cc1C(=O)NN1CCN(C)CC1`, the melting point was 198 to 200 °C.

On to `C[C@@H](O)[C@H]1CC[C@H]2[C@@H]3CC=C4CC(=O)CC[C@]4(C)[C@H]3CC[C@]12C`, for which the melting point is 171 to 175 °C. With `FC(F)(F)C(c1ccccc1)(c1ccccc1)c1ccccc1` the figure was 158 to 159 °C. `COc1ccc(-n2nc(Sc3cccc(OC)c3)c(C)c(C#N)c2=O)cc1` came in with a melting point of 143 to 144 °C. With `OC(CCl)COc1ccc(-c2nc(C(F)(F)F)c[nH]2)cc1` (configuration not stated) the figure was 181 to 183 °C; with `NC1=NC(c2ccc(OC(F)F)cc2)(c2cccc(-c3cccnc3F)c2)C2=NCCCN12` (configuration not stated), 104 to 114 °C. In turn, `COCC1OC(n2cnc3c(NC4CCCC4)ncnc32)C(O)C1O` (configuration not stated) came in with a melting point of 164 to 166 °C. In turn, `CC1=NN=C(N2N=C(c3ccc([N+](=O)[O-])cc3)c3cc4c(cc3CC2C)OCO4)SC1` (configuration not stated) displayed a melting point of 203 to 204 °C. As to `O=C(Oc1ccc2c(OC(=O)c3ccc(O)c(O)c3)c3cc(OC(=O)c4ccc(O)c(O)c4)ccc3cc2c1)c1ccc(O)c(O)c1`, the melting point amounted to 233 °C. With `COc1ccc2cc(C(=O)Cl)oc2c1`, the melting point fell in the range of 96 to 99 °C. `C[Si](C)(c1ccc(N(c2ccccc2)c2ccccc2)cc1)c1ccc(N(c2ccccc2)c2ccccc2)cc1` gave a melting point of 170 to 172 °C. `CC(C)CNC(=O)CN=Cc1ccccc1F` showed a melting point of 154 °C. Then `N#Cc1ccnc(Nc2ccc(-n3nc(C(F)(F)F)cc3C(F)(F)F)cc2)c1`, with 152 to 153 °C; and `NCCCCCCCCCCCCCCCCCCCC(=O)O`, with 172 to 174 °C; and `CCOC(=O)c1cc(C=O)[nH]n1`, with 133 to 134 °C. `CC(C)COCCOc1ccc(OCC(O)CNCCNC(=O)N(C)C)cc1` (configuration not stated) displayed a melting point of 75 °C.

Take `COc1cc(COCCc2cccc(NS(=O)(=O)C(F)(F)F)c2)ccc1-c1ccc(Cl)cc1`: the melting point was 88 to 90 °C. Molecule `O[C@@H](COCc1ccccc1)[C@H](OCc1ccccc1)[C@@H](OCc1ccccc1)[C@@H](O)COCc1ccccc1` had a melting point of 52.5 to 53 °C.

The molecule `CCOC(=O)c1c(C)nc(N(C)N)c([N+](=O)[O-])c1Cl` returned a melting point of 159 to 161 °C.
